Activity calls are given as the source filed them. The rule behind the calls is not given here.
What follows are compounds tested on Cortical neurone (assay: Neurotrophic activity in Sprague-Dawley rat cortical neurons assessed as promotion of neurite outgrowth at 0.1 to 10 uM).
Assay type: functional

| Compound | Activity |
| --- | --- |
| CC1=CC[C@]2(O)[C@@]3(C)COC4O[C@](O)(C[C@@]12[C@H]4O)[C@]3(C)O | inactive |
| C[C@@H]1CC[C@@]2(O)C13CC(=O)C1(C)C2(C)CO[C@]1(OC(=O)c1ccccc1)[C@@H]3O | inactive |
| C[C@@H]1C[C@@H](O)[C@@]2(O)[C@@]13C[C@@]1(O)OC(OC[C@@]2(C)[C@@]1(C)O)[C@@H]3O | inactive |
| C[C@@H]1CC=C2[C@@]13C[C@@]1(O)OC(OC[C@@]2(C)[C@@]1(C)O)[C@@H]3O | inactive |
| C[C@@H]1CC[C@@]2(O)[C@@]13C[C@@]1(O)OC(OC[C@@]2(C)[C@@]1(C)O)[C@@H]3O | inactive |
| C[C@@H]1CC[C@@]2(O)C13CC(=O)C1(C)C2(C)CO[C@]1(O)[C@@H]3O | Active |

Reference: ChEMBL document CHEMBL1150810, “Structure and neurotrophic activity of seco-prezizaane-type sesquiterpenes from Illicium merrillianum” (J Nat Prod, 2001)
